For 33 molecules, IC50 results are on record in patent US10005769B2, “2,3-dihydrobenzofuran-5YL compounds as DYRK kinase inhibitors” (4SC DISCOVERY GMBH, priority 2013, dated 2018).

Sequence of DYRK1B (Q9Y463 whole entry): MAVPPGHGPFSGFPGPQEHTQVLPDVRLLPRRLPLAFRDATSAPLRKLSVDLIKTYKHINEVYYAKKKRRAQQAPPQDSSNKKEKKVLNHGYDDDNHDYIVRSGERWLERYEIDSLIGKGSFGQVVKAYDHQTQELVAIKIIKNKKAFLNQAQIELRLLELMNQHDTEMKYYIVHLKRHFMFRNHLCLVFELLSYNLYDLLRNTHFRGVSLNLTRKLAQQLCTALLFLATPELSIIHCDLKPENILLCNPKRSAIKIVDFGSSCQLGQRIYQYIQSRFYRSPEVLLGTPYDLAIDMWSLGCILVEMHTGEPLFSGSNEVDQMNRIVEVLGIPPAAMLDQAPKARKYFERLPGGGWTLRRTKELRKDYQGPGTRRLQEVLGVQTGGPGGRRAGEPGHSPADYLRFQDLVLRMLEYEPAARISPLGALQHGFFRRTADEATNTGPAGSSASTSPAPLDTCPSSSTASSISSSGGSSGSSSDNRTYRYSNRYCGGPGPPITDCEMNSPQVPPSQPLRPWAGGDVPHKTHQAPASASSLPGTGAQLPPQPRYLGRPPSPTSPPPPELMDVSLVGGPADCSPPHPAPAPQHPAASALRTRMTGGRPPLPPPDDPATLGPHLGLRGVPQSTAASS

The target of the test is DYRK1B (Homo sapiens (Human), UniProt Q9Y463). The test can be described thus: DYRK1B Kinase Assay (33P ATP, DYRKtide substrate, Reaction Biology Corp.). In kind it is biochemical. To be noted: 0.3 nM DYRK1B, 20 μM DYRKtide, 10 μM ATP, 25° C., 120 min. The procedure:
The assay was carried out by Reaction Biology Corp., […], Pa., USA according to specifications by Reaction Biology Corp., as detailed herein below and further described in Anastassiadis et al., Nature Biotechnology, 29 (2011) 1039-1045. The substrate DYRKtide (synthetic peptide RRRFRPASPLRGPPK) was dissolved in freshly prepared Base Reaction Buffer (20 mM Hepes (pH 7.5), 10 mM MgCl2, 1 mM EGTA, 0.02% Brij35, 0.02 mg/ml BSA, 0.1 mM Na3VO4, 2 mM DTT, 1% DMSO) at a concentration of 20 μM. DYRK1B was added to the substrate solution in a concentration of 0.3 nM and gently mixed. Dilution series of the compounds according to the present invention in DMSO were prepared. Each dilution was added to a batch of the above reaction mix, followed 20 min later by addition of a mixture of ATP and ^33P ATP (specific activity 0.01 μCi/μl final) to a final concentration of 10 μM. Reactions were carried out at 25° C. for 120 min, followed by spotting the reactions onto P81 ion exchange filter paper. Unbound phosphate was removed by extensive washing of the filters in 0.75% phosphoric acid. […] IC50 values and curve fits were obtained using Prism (Graph Pad Software). DYRK1B used in the above assays are further described in the below table: [table] Exemplary compound dilution series, final concentrations of compound in the assay vessel; the individual concentrations and the range of concentrations covered by the dilution series may differ for each compound, as long as enough data points are obtained to determine the compound's IC50: DYRK 1[…].
Broadly, the IC50 is the concentration that gives 50% inhibition. `O=C(Nc1nc(-c2ccncc2)n[nH]1)c1csc(-c2ccc3c(c2)CCO3)n1` [Compound 42, 2-(2,3-Dihydrobenzofuran-5-yl)-N-(3-(pyridin-4-yl)-1H-1,2,4-triazol-5-yl)thiazole-4-carboxamide] came in with an IC50 of 2.06 nM. The result for `CC(C)Sc1n[nH]c(NC(=O)c2csc(-c3ccc4c(c3)CCO4)n2)n1` [Compound 24, 2-(2,3-Dihydrobenzofuran-5-yl)-N-(3-(isopropylthio)-1H-1,2,4-triazol-5-yl)thiazole-4-carboxamide] reads 17.8 nM; that for `CCCSc1n[nH]c(NC(=O)c2csc(-c3ccc4c(c3)CCO4)n2)n1` [Compound 30, 2-(2,3-Dihydrobenzofuran-5-yl)-N-(3-(propylthio)-1H-1,2,4-triazol-5-yl)thiazole-4-carboxamide], 7.97 nM; that for `CCOC(=O)c1csc(NC(=O)c2csc(-c3ccc4c(c3)CCO4)n2)n1` [Compound 78, Ethyl 2-[2-(2,3-dihydro-1-benzofuran-5-yl)-1,3-thiazole-4-amido]-1,3-thiazole-4-carboxylate], 410 nM. The molecule `O=C(Nc1ncns1)c1csc(-c2ccc3c(c2)CCO3)n1` [Compound 73, 2-(2,3-Dihydro-1-benzofuran-5-yl)-N-(1,2,4-thiadiazol-5-yl)-1,3-thiazole-4-carboxamide] gave an IC50 of 114 nM. On to `Cc1cnc(NC(=O)c2csc(-c3ccc4c(c3)CCO4)n2)s1` [Compound 58, 2-(2,3-Dihydro-1-benzofuran-5-yl)-N-(5-methyl-1,3-thiazol-2-yl)-1,3-thiazole-4-carboxamide], for which half-maximal inhibition (IC50) required 27.6 nM. The result for `C=CCSc1n[nH]c(NC(=O)c2csc(-c3ccc4c(c3)CCO4)n2)n1` [Compound 39, N-(3-(Allylthio)-1H-1,2,4-triazol-5-yl)-2-(2,3-dihydrobenzofuran-5-yl)thiazole-4-carboxamide] reads 11.9 nM; that for `O=C(c1ccccc1)c1ccc2[nH]c(NC(=O)c3csc(-c4ccc5c(c4)CCO5)n3)nc2c1` [Compound 60, N-(5-Benzoyl-1H-1,3-benzodiazol-2-yl)-2-(2,3-dihydro-1-benzofuran-5-yl)-1,3-thiazole-4-carboxamide], 38.3 nM; that for `CSc1nc(NC(=O)c2csc(-c3ccc4c(c3)CCO4)n2)ns1` [Compound 77, 2-(2,3-Dihydro-1-benzofuran-5-yl)-N-[5-(methylsulfanyl)-1,2,4-thiadiazol-3-yl]-1,3-thiazole-4-carboxamide], 420 nM. Next, `CCOC(=O)C1CCN(c2nnc(NC(=O)c3csc(-c4ccc5c(c4)CCO5)n3)s2)CC1` [Compound 53, Ethyl 1-{5-[2-(2,3-dihydro-1-benzofuran-5-yl)-1,3-thiazole-4-amido]-1,3,4-thiadiazol-2-yl}piperidine-4-carboxylate]: 14.4 nM; `O=C(Nc1nnc(Br)s1)c1csc(-c2ccc3c(c2)CCO3)n1` [Compound 67, N-(5-Bromo-1,3,4-thiadiazol-2-yl)-2-(2,3-dihydro-1-benzofuran-5-yl)-1,3-thiazole-4-carboxamide]: 65.9 nM; `CSc1nnc(NC(=O)c2csc(-c3ccc4c(c3)CCO4)n2)[nH]1` [Compound 21, 2-(2,3-Dihydrobenzofuran-5-yl)-N-(5-(methylthio)-4H-1,2,4-triazol-3-yl)thiazole-4-carboxamide]: 18.3 nM.

In the case of `Cc1nsc(NC(=O)c2csc(-c3ccc4c(c3)CCO4)n2)n1` [Compound 69, 2-(2,3-Dihydro-1-benzofuran-5-yl)-N-(3-methyl-1,2,4-thiadiazol-5-yl)-1,3-thiazole-4-carboxamide], the half-inhibitory concentration (IC50) stood at 72.6 nM. As to `O=C(Nc1nnc(-c2ccncc2)s1)c1csc(-c2ccc3c(c2)CCO3)n1` [Compound 59, 2-(2,3-Dihydro-1-benzofuran-5-yl)-N-[5-(pyridin-4-yl)-1,3,4-thiadiazol-2-yl]-1,3-thiazole-4-carboxamide], half-maximal inhibition (IC50) required 31.5 nM. Next, `CCOC(=O)c1c[nH]nc1NC(=O)c1csc(-c2ccc3c(c2)CCO3)n1` [Compound 55, Ethyl 3-[2-(2,3-dihydro-1-benzofuran-5-yl)-1,3-thiazole-4-amido]-1H-pyrazole-4-carboxylate]: 20.6 nM; `O=C(Nc1nc2ccccc2s1)c1csc(-c2ccc3c(c2)CCO3)n1` [Compound 75, N-(1,3-Benzothiazol-2-yl)-2-(2,3-dihydro-1-benzofuran-5-yl)-1,3-thiazole-4-carboxamide]: 135 nM; “Ethyl 5-(2-(2,3-dihydrobenzofuran-5-yl)thiazole-4-carboxamido)-4H-1,2,4-triazole-3-carboxylate [Compound 20]”: 109 nM.

`CN1CCN(c2nnc(NC(=O)c3csc(-c4ccc5c(c4)CCO5)n3)s2)CC1` [Compound 57, 2-(2,3-Dihydro-1-benzofuran-5-yl)-N-[5-(4-methylpiperazin-1-yl)-1,3,4-thiadiazol-2-yl]-1,3-thiazole-4-carboxamide] came in with an IC50 of 26.4 nM. In turn, `O=C(Nc1nncs1)c1csc(-c2ccc3c(c2)CCO3)n1` [Compound 71, 2-(2,3-Dihydro-1-benzofuran-5-yl)-N-(1,3,4-thiadiazol-2-yl)-1,3-thiazole-4-carboxamide] displayed an IC50 of 76.6 nM. The result for `O=C(Nc1ncccc1O)c1csc(-c2ccc3c(c2)CCO3)n1` [Compound 16, 2-(2,3-Dihydrobenzofuran-5-yl)-N-(3-hydroxypyridin-2-yl)thiazole-4-carboxamide] reads 177 nM; that for `O=C(Nc1nc(CCc2ccccc2)n[nH]1)c1csc(-c2ccc3c(c2)CCO3)n1` [Compound 36, 2-(2,3-Dihydrobenzofuran-5-yl)-N-(3-phenethyl-1H-1,2,4-triazol-5-yl)thiazole-4-carboxamide], 112 nM; that for `O=C(Nc1nnc(N2CCOCC2)s1)c1csc(-c2ccc3c(c2)CCO3)n1` [Compound 56, 2-(2,3-Dihydro-1-benzofuran-5-yl)-N-[5-(morpholin-4-yl)-1,3,4-thiadiazol-2-yl]-1,3-thiazole-4-carboxamide], 21.7 nM. As to `O=C(Nc1nc(-c2cccc(F)c2)n[nH]1)c1csc(-c2ccc3c(c2)CCO3)n1` [Compound 68, 2-(2,3-Dihydro-1-benzofuran-5-yl)-N-[3-(3-fluorophenyl)-1H-1,2,4-triazol-5-yl]-1,3-thiazole-4-carboxamide], the half-inhibitory concentration (IC50) came to 67.1 nM. Next, `COC(=O)c1n[nH]c(NC(=O)c2csc(-c3ccc4c(c3)CCO4)n2)n1` [Compound 15, Methyl 5-(2-(2,3-dihydrobenzofuran-5-yl)thiazole-4-carboxamido)-1H-1,2,4-triazole-3-carboxylate]: 152 nM; `Cc1cc(NC(=O)c2csc(-c3ccc4c(c3)CCO4)n2)n[nH]1` [Compound 66, 2-(2,3-Dihydro-1-benzofuran-5-yl)-N-(5-methyl-1H-pyrazol-3-yl)-1,3-thiazole-4-carboxamide]: 50.5 nM; `O=C(Nc1nc2ccccc2[nH]1)c1csc(-c2ccc3c(c2)CCO3)n1` [Compound 50, N-(1H-1,3-Benzodiazol-2-yl)-2-(2,3-dihydro-1-benzofuran-5-yl)-1,3-thiazole-4-carboxamide]: 6.73 nM.

Take `O=C(Nc1nc(SCCc2ccccc2)n[nH]1)c1csc(-c2ccc3c(c2)CCO3)n1` [Compound 37, 2-(2,3-Dihydrobenzofuran-5-yl)-N-(3-(phenethylthio)-1H-1,2,4-triazol-5-yl)thiazole-4-carboxamide]: the IC50 amounted to 56 nM. The result for `O=C(Nc1nc2ccc(C(=O)N3CCOCC3)cc2s1)c1csc(-c2ccc3c(c2)CCO3)n1` [Compound 51, 2-(2,3-Dihydro-1-benzofuran-5-yl)-N-[6-(morpholine-4-carbonyl)-1,3-benzothiazol-2-yl]-1,3-thiazole-4-carboxamide] reads 9.17 nM; that for `N#Cc1ccnc(NC(=O)c2csc(-c3ccc4c(c3)CCO4)n2)c1` [Compound 18, N-(4-Cyanopyridin-2-yl)-2-(2,3-dihydrobenzofuran-5-yl)thiazole-4-carboxamide], 19.5 nM; that for `Cn1c(NC(=O)c2csc(-c3ccc4c(c3)CCO4)n2)nc2ccccc21` [Compound 54, 2-(2,3-Dihydro-1-benzofuran-5-yl)-N-(1-methyl-1H-1,3-benzodiazol-2-yl)-1,3-thiazole-4-carboxamide], 17.6 nM. Next, `CC(C)CSc1n[nH]c(NC(=O)c2csc(-c3ccc4c(c3)CCO4)n2)n1` [Compound 34, 2-(2,3-Dihydrobenzofuran-5-yl)-N-(3-(isobutylthio)-1H-1,2,4-triazol-5-yl)thiazole-4-carboxamide]: 38.1 nM; `COc1nc(NC(=O)c2csc(-c3ccc4c(c3)CCO4)n2)ns1` [Compound 64, 2-(2,3-Dihydro-1-benzofuran-5-yl)-N-(5-methoxy-1,2,4-thiadiazol-3-yl)-1,3-thiazole-4-carboxamide]: 48.3 nM. Next, `CC(=O)c1csc(NC(=O)c2csc(-c3ccc4c(c3)CCO4)n2)n1` [Compound 76, N-(4-Acetyl-1,3-thiazol-2-yl)-2-(2,3-dihydro-1-benzofuran-5-yl)-1,3-thiazole-4-carboxamide]: 185 nM.
